Values of other authors in PMC5348030 (Nature chemical biology, 2016).

Tested on: HIV integrase

residence time on its target: 4.8 min
SMILES: Cc1nnc(C(=O)NC(C)(C)c2nc(C(=O)NCc3ccc(F)cc3)c(O)c(=O)n2C)o1 [raltegravir]
